Values quoted from earlier work in US5604233A, “Lactone stable formulation of 7-ethyl camptothecin and methods for uses thereof” (priority 1994, dated 1997).

Key:
topoisomerase I = conditions: cited from earlier work
L1210 leukemia = conditions: 10-100 mg/kg intraperitoneally; cited from earlier work
[1] = tested on: Topoisomerase I purified from human colon carcinoma cells or calf thymus; conditions: cited from earlier work
[2] = pH levels below 7.0; cited from earlier work
[3] = Phase I, early 1970's; cited from earlier work
[4] = cited from earlier work
topoisomerase II = conditions: cited from earlier work
L1210 cells = conditions: cited from earlier work

CC[C@@]1(O)C(=O)OCc2c1cc1n(c2=O)Cc2cc3ccccc3nc2-1 [camptothecin]
reversibility of cleavable complex stabilization (topoisomerase I): readily reversible
T/C (treated/control) ratios relative to ECPT and HECPT (L1210 leukemia): superior
results relative to CPT-11 under the same conditions (L1210 leukemia): inferior
inhibition of purified topoisomerase I [1]: inhibited
form predominating [2]: closed form
antitumor activity in Phase I trials [3]: antitumor activity
toxicity in Phase I trials [3]: unpredictable myelosuppression and hemorrhagic cystitis
solubility in water [4]: poorly soluble in water
effect on topoisomerase II (topoisomerase II): no effect
protein-free breaks (L1210 cells): increase in unexplained protein-free breaks
